This note sets out measurements from patent US6750375B2, “Transgenic mouse comprising a disruption in an RGS9 gene” (California Institute of Technology, priority 2000, dated 2004).

What all share (format): in vivo, mouse
The subject of data set [1] is RGS9 knockout mice and their wild type littermates. The experiment in a line: Locomotion in dopamine depleted (reserpine treated) animals. The method, then: (§1) RGS9 knockout mice and their wild type littermates were placed in the photobeam cage rack activity system. The photobeam cage rack activity system was made by San Diego Instruments. Single events represent disruption of two distinct light beams 10 cm apart. Before drug administration, animals were allowed to habituate for 30 min. which was scored as baseline activity. […] All drugs were injected intraperitoneally. Drug effects were assessed for 30 min. Bodyweight was measured prior to all drug applications.
There are several options to induce behavioral changes secondary to a dopaminergic deficit in rodents. However, a strong phenotype in mice is difficult o achieve. […] Therefore, we depleted the animals of dopamine using chronic treatment with reserpine (1 mg /kg per day×5 days). […] Baseline locomotor activity was already greater in homozygous knock-out animals (FIG. 2, n. s.).

For data set [2] the test system is unchanged. The experiment in a line: Dyskinesia rating (abnormal involuntary movements) in reserpine treated animals. The conditions noted are these: apomorphine 5 mg/kg after chronic reserpine. An excerpt:
To score for abnormal involuntary movements we adapted a rating scale that was previously used to score drug induced dyskinesia in monkeys (Goulet and Madra, JPET 2000). Both, trunk and limb, dyskinesia and stereotypic behavior were rated-absent (=O), mild (=1), moderate (=or 2) or severe (=3).
Using a modified monkey dyskinesia scale, there was a dramatic difference between homozygous knock out animals and wild type or heterozygous mice (FIG. 3).

Data set [3] has the same test system. Put plainly: Locomotor activity (photobeam cage rack) in unlesioned animals. The method, then:
as §1
Locomotion in Unlesioned Animals

Molecules are shown by their SMILES.

As to `COC(=O)[C@H]1[C@H]2C[C@@H]3c4[nH]c5cc(OC)ccc5c4CCN3C[C@H]2C[C@@H](OC(=O)c2cc(OC)c(OC)c(OC)c2)[C@@H]1OC` [reserpine], the spontaneous locomotion entry in data set [1] (reserpine 1 mg/kg per day x 5 days) was “greatly reduced spontaneous locomotion”.
`CN1CCc2cccc3c2[C@H]1Cc1ccc(O)c(O)c1-3` [apomorphine]: the “abnormal motor behavior (dystonia, hyperkinetic movements of the hindlimbs)” value in data set [2] is “induced abnormal motor behavior only in homozygous knockout animals”. Besides, the locomotor activity entry in data set [1] (apomorphine 5 mg/kg after chronic reserpine, all animals) is recorded as “induced locomotor activity in all animals”. Moreover, in data set [1] (apomorphine 5 mg/kg after chronic reserpine, homozygous knock out animals, p<0.05), the “locomotor activity, homozygous knock-out vs other animals” value was “more pronounced in homozygous knock out animals”.
Turning to `C[C@H](N)Cc1ccccc1` [amphetamine, d-amphetamine], in data set [3] (amphetamine 5 mg/kg intraperitoneal, homozygous knock-out animals, p<0.05, t-test), the “increase in locomotion, homozygous knock-out vs wild type” value is reported as “significantly greater increase in locomotion”. In addition, the locomotion entry in data set [3] (amphetamine 5 mg/kg intraperitoneal, wild type and RGS9 deficient animals) is on record as “robust increase in locomotion”.
In data set [3] (SKF 38393 10 mg/kg, all animals, no differences between genotypes (p=0.7)), `Oc1cc2c(cc1O)C(c1ccccc1)CNCC2` (stereo not shown) [SKF 38393] showed an increase in locomotion of 2 fold.
